Measurements published in ChEMBL document CHEMBL4402562, “Discovery of Novel Peptidomimetic Boronate ClpP Inhibitors with Noncanonical Enzyme Mechanism as Potent Virulence Blockers in Vitro and in Vivo” (J Med Chem, 2020).
Activity calls are given as the source filed them. The calls are words filed in the database; no cut-off is given here.

Test system: Staphylococcus aureus
Experiment: Inhibition of Hla expression in methicillin-resistant Staphylococcus aureus ATCC 33591 at 16 uM by Western blot analysis
Format: functional, organism-based

## CC(C)C[C@H](NC(=O)[C@H](Cc1c[nH]c2ccccc12)NC(=O)c1cc(Cl)ccc1Cl)B(O)O
  inhibition: Active
